Assay results reported in patent US20250179047A1, “5-[7-(3,4-DIHYDRO-1H-ISOQUINOLINE-2-CARBONYL)-1,2,3,4 TETRAHYDROISOQUINOLIN-6-YL]-1H-PYRROLE-3-CARBOXAMIDE DERIVATIVES, PHARMACEUTICAL COMPOSITIONS CONTAINING THEM AND THEIR USES AS PRO-APOPTOTIC AGENTS” (LES LABORATOIRES SERVIER, priority 2022, published 2025).

Experiments:
BCL2 WT = BCL2 WT (Homo sapiens (Human), UniProt P10415); assay: TR-FRET competitive binding assay, BCL2 WT; conditions: Ki determined from IC50, read-out: TR_FRET EKI_Bcl2 WT
Method in brief: (§1)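 Competitive TR-FRET displacement of fluorescein-PUMA peptide (2 or 20 nM) from 0.5 nM terbium-labelled N-terminal Halo-fusion BCL2 (1-207, wild type or mutant) or BCLXL (2-196), expressed in E. coli. Buffer 50 mM Hepes pH 7.5, 150 mM NaCl, 5% DMSO; 2 h at 23°C. 520/495 nm ratio fitted over 11 points for IC50, converted to Ki.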

BCL2 G101V [1] = biological target: BCL2 G101V (Homo sapiens, UniProt P10415, G101V); assay: TR-FRET competitive binding assay, BCL2 G101V; conditions: BCL2 G101V; Ki determined from IC50; read-out: TR_FRET EKI_Bcl2 G101V
Method in brief: as §1

BCL2 G101V [2] = assay: TR-FRET competitive binding assay, BCL2 G101V; parameters: species or system human; conditions: ratio Ki BCL2 G101V / Ki BCL2 WT
Method in brief: as §1

BCL2 D103Y = BCL2 D103Y (Homo sapiens, UniProt P10415, D103Y); assay: TR-FRET competitive binding assay, BCL2 D103Y; conditions: Ki determined from IC50, read-out: TR_FRET EKI_Bcl2 D103Y
Method in brief: as §1

BCLXL WT = BCLXL WT (Homo sapiens (Human), UniProt Q07817); assay: TR-FRET competitive binding assay, BCLXL WT; conditions: for Ki: BCLXL WT, Ki determined from IC50, read-out: TR_FRET EKI BclxL; for TR_FRET EKI BCLxL/WT selectivty ratio: ratio Ki BCLxL / Ki BCL2 WT
Sequence of BCLXL WT (Q07817 other isoform, or with tags, fused parts or gaps): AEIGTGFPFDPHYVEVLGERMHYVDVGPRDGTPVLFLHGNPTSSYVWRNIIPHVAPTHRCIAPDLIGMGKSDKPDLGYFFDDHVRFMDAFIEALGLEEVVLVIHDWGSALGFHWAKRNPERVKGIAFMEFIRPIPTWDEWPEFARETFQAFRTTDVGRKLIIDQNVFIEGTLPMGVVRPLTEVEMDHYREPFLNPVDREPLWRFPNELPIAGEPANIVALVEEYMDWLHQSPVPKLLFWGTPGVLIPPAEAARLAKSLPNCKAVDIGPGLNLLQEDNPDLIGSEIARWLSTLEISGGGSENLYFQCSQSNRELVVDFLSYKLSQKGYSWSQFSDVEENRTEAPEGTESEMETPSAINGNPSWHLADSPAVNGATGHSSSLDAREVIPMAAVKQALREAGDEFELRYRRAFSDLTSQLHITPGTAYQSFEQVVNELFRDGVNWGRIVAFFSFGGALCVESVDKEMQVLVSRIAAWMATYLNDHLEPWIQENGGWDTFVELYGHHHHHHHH
Method in brief: as §1

KMS-12-PE Bcl-2 WT = assay: In vitro cytotoxicity CellTiter-Glo 48 h, KMS-12-PE Bcl-2 WT; format: cell-based; conditions: C50 = concentration needed to reach 50% of the cellular viability
Method in brief: (§2)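 Transduce KMS-12-PE with Bcl-2 WT or G101V lentivirus, then FACS-sort RFP-positive cells. Add compounds in an 11-point dilution series and incubate 48 h at 37 °C. Measure ATP-based luminescence with CellTiter-Glo and derive C50 (50% viability).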

KMS-12-PE Bcl-2 G101V = assay: In vitro cytotoxicity CellTiter-Glo 48 h, KMS-12-PE Bcl-2 G101V; format: cell-based; conditions: for Ratio (G101V/WT): C50 KMS-12-PE Bcl-2 G101V over C50 KMS-12-PE Bcl-2 WT; for IC50: 48 h, CellTiter-Glo, C50 = concentration needed to reach 50% of the cellular viability
Method in brief: as §2

SMILES | Ki (BCL2 WT) [nM] | Ki (BCL2 G101V [1]) [nM] | TR_FRET EKI G101V/WT selectivty ratio (BCL2 G101V [2]) | Ki (BCL2 D103Y) [nM] | Ki (BCLXL WT) [nM] | TR_FRET EKI BCLxL/WT selectivty ratio (BCLXL WT) | IC50 (KMS-12-PE Bcl-2 WT; Homo sapiens, KMS-12-PE) [µM] | Ratio (G101V/WT) (KMS-12-PE Bcl-2 G101V) | IC50 (KMS-12-PE Bcl-2 G101V; Homo sapiens, KMS-12-PE) [µM] | IC50 (KMS-12-PE Bcl-2 WT) [µM] | IC50 (KMS-12-PE Bcl-2 G101V) [µM]
Cc1c(N(C(=O)c2cc(-c3cc4c(cc3C(=O)N3Cc5ccccc5C[C@H]3CN3CCCCC3)CN(C(=O)Cc3ccc(OCCN5CCN(C)CC5)cc3)CC4)n(C)c2C)c2ccc(O)cc2)cc(C#N)n1C [Example 119, N-(5-cyano-1,2-dimethyl-1H-pyrrol-3-yl)-N-(4-hydroxyphenyl)-1,2-dimethyl-5-[2-(2-{4-[2-(4-methylpiperazin-1-yl)ethoxy]phenyl}acetyl)-7-[(3S)-3-[(piperidin-1-yl)methyl]-1,2,3,4-tetrahydroisoquinoline-2-carbonyl]-1,2,3,4-tetrahydroisoquinolin-6-yl]-1H-pyrrole-3-carboxamide] | 0.04 | 0.2 | 5.6 | 0.14 | 2.2 | 56.4 | 0.0284 | 2.57 | 0.073 | – | –
Cc1c(N(C(=O)c2cc(-c3cc4c(cc3C(=O)N3Cc5ccccc5C[C@H]3COCC3CC3)CN(C(=O)Cc3ccc(OCCN5CCOCC5)cc3F)CC4)n(C)c2C)c2ccc(O)cc2)cc(C#N)n1C [Example 170, N-(5-cyano-1,2-dimethyl-pyrrol-3-yl)-5-[7-[(3S)-3-(cyclopropylmethoxymethyl)-3,4-dihydro-1H-isoquinoline-2-carbonyl]-2-[2-[2-fluoro-4-(2-morpholinoethoxy)phenyl]acetyl]-3,4-dihydro-1H-isoquinolin-6-yl]-N-(4-hydroxyphenyl)-1,2-dimethyl-pyrrole-3-carboxamide] | 0.3 | 1.3 | 4.3 | 1.06 | 4.5 | 15.0 | 0.0047 | 6.4831 | 0.0306 | – | –
Cc1c(N(C(=O)c2cc(-c3cc4c(cc3C(=O)N3Cc5ccccc5C[C@H]3CN3CCC(F)(F)CC3)CN(C(=O)Cc3ccc(OCCN5CCOCC5)cc3F)CC4)n(C)c2C)c2ccc(O)cc2)cc(C#N)n1C [Example 130, N-(5-cyano-1,2-dimethyl-1H-pyrrol-3-yl)-5-{7-[(3S)-3-[(4,4-difluoropiperidin-1-yl)methyl]-1,2,3,4-tetrahydroisoquinoline-2-carbonyl]-2-(2-{2-fluoro-4-[2-(morpholin-4-yl)ethoxy]phenyl}acetyl)-1,2,3,4-tetrahydroisoquinolin-6-yl}-N-(4-hydroxyphenyl)-1,2-dimethyl-1H-pyrrole-3-carboxamide] | 0.4 | 2.3 | 5.8 | 1.33 | 6.1 | 15.3 | 0.0055 | 4.69 | 0.0258 | – | –
Cc1c(N(C(=O)c2cc(-c3cc4c(cc3C(=O)N3Cc5ccccc5C[C@H]3CN3CCC(C)CC3)CN(C(=O)Cc3ccc(OCCN5CCOCC5)cc3F)CC4)n(C)c2C)c2ccc(O)cc2)cc(C#N)n1C [Example 140] | 0.08 | 0.4 | 5.1 | 0.17 | 2.8 | 35.9 | 0.0055 | 6.2044 | 0.034 | – | –
Cc1c(C(=O)N(c2ccc(O)cc2)c2cc(C#N)n(C(F)F)c2C)cc(-c2cc3c(cc2C(=O)N2Cc4ccccc4C[C@H]2CN2CCCCC2)CN(C(=O)Cc2ccc(OCCN4CCOC(C)C4)cc2F)CC3)n1C (single isomer, unassigned) [Example 162, N-[5-cyano-1-(difluoromethyl)-2-methyl-pyrrol-3-yl]-5-[2-[2-[2-fluoro-4-[2-((2R or S)-2-methylmorpholin-4-yl)ethoxy]phenyl]acetyl]-7-[(3S)-3-(1-piperidylmethyl)-3,4-dihydro-1H-isoquinoline-2-carbonyl]-3,4-dihydro-1H-isoquinolin-6-yl]-N-(4-hydroxyphenyl)-1,2-dimethyl-pyrrole-3-carboxamide] | 0.13 | 0.6 | 4.8 | 0.3 | 9.2 | 70.8 | 0.0063 | 5.0958 | 0.0319 | – | –
Cc1c(N(C(=O)c2cc(-c3cc4c(cc3C(=O)N3Cc5ccccc5C[C@H]3CN3CC[C@H](C)C3)CN(C(=O)Cc3ccc(OCCN5CCOCC5)cc3F)CC4)n(C)c2C)c2ccc(O)cc2)cc(C#N)n1C [Example 157, N-(5-cyano-1,2-dimethylpyrrol-3-yl)-5-[2-(2-{2-fluoro-4-[2-(morpholin-4-yl)ethoxy]phenyl}acetyl)-7-{[(3S)-3-{[(3S)-3-methylpyrrolidin-1-yl]methyl}-3,4-dihydro-1H-isoquinolin-2-yl]carbonyl}-3,4-dihydro-1H-isoquinolin-6-yl]-N-(4-hydroxyphenyl)-1,2-dimethylpyrrole-3-carboxamide] | 0.04 | 0.3 | 7.7 | 0.09 | 2 | 45.5 | 0.0171 | 5.5848 | 0.0955 | – | –
Cc1c(N(C(=O)c2cc(-c3cc4c(cc3C(=O)N3Cc5ccccc5C[C@H]3CN3CCCCC3)CN(C(=O)Cc3ccc(OCCC5COCCO5)cc3F)CC4)n(C)c2C)c2ccc(O)cc2)cc(C#N)n1C (single isomer, unassigned) [Example 175, N-(5-cyano-1,2-dimethyl-pyrrol-3-yl)-5-[2-[2-[4-[2-((2R or S)-1,4-dioxan-2-yl)ethoxy]-2-fluoro-phenyl]acetyl]-7-[(3S)-3-(1-piperidylmethyl)-3,4-dihydro-1H-isoquinoline-2-carbonyl]-3,4-dihydro-1H-isoquinolin-6-yl]-N-(4-hydroxyphenyl)-1,2-dimethyl-pyrrole-3-carboxamide] | 0.08 | 0.5 | 7.0 | 0.34 | 3.1 | 40.8 | – | 6.335 | – | 0.0041 | 0.0261
Cc1c(N(C(=O)c2cc(-c3cc4c(cc3C(=O)N3Cc5ccccc5C[C@H]3CN3CCCCC3)CN(C(=O)Cc3ccc(OCCN5CCO[C@H](C)C5)cc3)CC4)n(C)c2C)c2ccc(O)cc2)cc(C#N)n1C [Example 151, N-(5-cyano-1,2-dimethyl-1H-pyrrol-3-yl)-N-(4-hydroxyphenyl)-1,2-dimethyl-5-[2-(2-{4-[2-((2R)-2-methylmorpholin-4-yl)ethoxy]phenyl}acetyl)-7-[(3S)-3-[(piperidin-1-yl)methyl]-1,2,3,4-tetrahydroisoquinoline-2-carbonyl]-1,2,3,4-tetrahydroisoquinolin-6-yl]-1H-pyrrole-3-carboxamide] | 0.05 | 0.3 | 6.4 | 0.1 | 2.7 | 57.4 | 0.0105 | 6.0476 | 0.0635 | – | –
